Experimental data as given in patent publication USRE48335E1, “Polymyxin derivatives as antimicrobial compounds” (priority 2014, dated 2020).
≈ marks a conversion by molar mass, not a printed value. Read-outs that look alike come from different tables or passages of the source. Positions of bridges follow the written chain, without caps; N, C: chain ends. Non-standard residues stand in square brackets, D forms with d. Residues, ends and D or L forms follow the SMILES beside them. *: point of attachment. Benzoyl(3,5-Cl2) = O=C(c1cc(Cl)cc(Cl)c1)*; Benzoyl(3-CF3) = O=C(c1cccc(C(F)(F)F)c1)*; X17 = Cc1cc(C(=O)*)cc(C(F)(F)F)c1; X20 = Cc1cc(C(=O)*)ccc1C(F)(F)F; dNle = CCCC[C@@H](N)C(=O)O; Dab = NCC[C@H](N)C(=O)O; Abu = CC[C@H](N)C(=O)O; Dap = NC[C@H](N)C(=O)O

How the values were obtained:
[1] = tested on: Pseudomonas aeruginosa
Outline: (§1)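 Using polymyxin B sulphate as comparator control, the trifluoroacetate-salt lipopeptides were assayed in CAMHB by broth microdilution to CLSI M100-S18, and MICs recorded.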

[2] = tested on: Acinetobacter baumannii
Outline: as §1

[3] = tested on: Enterobacter cloacae
Outline: as §1

[4] = tested on: Klebsiella pneumoniae
Outline: as §1

[5] = tested on: P. aeruginosa ATCC 27853; test: In vivo efficacy in mouse blood infection model (neutropenic Swiss mice); settings: compound, free base 4 mg/kg intravenously 2 h after inoculation, blood at 4 h
Outline: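 Activity expressed as Δlog10 CFU/mL blood, treated minus saline control, 4 h after a single 4 mg/kg (free base) i.v. dose given 2 h post-infection. Bloodstream infection from i.v. early log-phase inoculum in Swiss mice made neutropenic by i.p. cyclophosphamide on days −4 (150 mg/kg) and −1 (100 mg/kg).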

[6] = Pseudomonas aeruginosa ATCC 27853, broth microdilution in CAMHB
[7] = Pseudomonas aeruginosa FADDI-PA022, broth microdilution in CAMHB
[8] = Pseudomonas aeruginosa FADDI-PA025, broth microdilution in CAMHB
[9] = Acinetobacter baumannii ATCC 17978, broth microdilution in CAMHB
[10] = Acinetobacter baumannii ATCC 19606, broth microdilution in CAMHB
[11] = Acinetobacter baumannii FADDI-AB034, broth microdilution in CAMHB
[12] = Enterobacter cloacae FADDI-EC001, broth microdilution in CAMHB
[13] = Enterobacter cloacae FADDI-EC003, broth microdilution in CAMHB
[14] = Enterobacter cloacae FADDI-EC006, broth microdilution in CAMHB

| SMILES | Δ log (Treated-Control at 4 h) [5] | MIC [1] | Minimum inhibitory concentration, Pa ATCC 27853 [1] | Minimum inhibitory concentration, Pa FADDI-PA022 [1] | Minimum inhibitory concentration, Pa FADDI-PA025 [1] | MIC [2] | Minimum inhibitory concentration, Ab A ATCC 17978 [2] | Minimum inhibitory concentration, Ab ATCC 19606 [2] | Minimum inhibitory concentration, Ab FADDI-AB034 [2] | Minimum inhibitory concentration, Ec FADDI-EC001 [3] | Minimum inhibitory concentration, Ec FADDI-EC003 [3] | Minimum inhibitory concentration, Ec FADDI-EC006 [3] | MIC [4] | also measured |
| --- | --- | --- | --- | --- | --- | --- | --- | --- | --- | --- | --- | --- | --- | --- |
| CC(C)C[C@H]1NC(=O)[C@H](CCN)NC(=O)[C@@H](NC(=O)[C@H](CN)NC(=O)[C@@H](NC(=O)[C@H](CCN)NC(=O)c2cc(Cl)cc(Cl)c2)[C@@H](C)O)CCNC(=O)[C@H]([C@@H](C)O)NC(=O)[C@H](CCN)NC(=O)[C@H](CCN)NC(=O)[C@H](C)NC1=O [Compound 117] ({Benzoyl(3,5-Cl2)}-[Dab]T[Dap][Dab][Dab][dL]A[Dab][Dab]T; lactam 4-C) | −2.99 log10 CFU/mL |  |  |  |  |  |  |  |  |  |  |  |  | MIC ([1]; P. aeruginosa ATCC 27853): 0.25 µg/mL (≈ 0.218 µM); Minimum inhibitory concentration, Pa ATCC 27853 [1, 6]: 0.25 µg/mL (≈ 0.218 µM); Minimum inhibitory concentration, Pa FADDI-PA022 [1, 7]: 2 µg/mL (≈ 1.74 µM); Minimum inhibitory concentration, Pa FADDI-PA025 [1, 8]: 2 µg/mL (≈ 1.74 µM); MIC ([2]; A. baumannii ATCC 19606): 1 µg/mL (≈ 0.872 µM); Minimum inhibitory concentration, Ab A ATCC 17978 [2, 9]: 0.25 µg/mL (≈ 0.218 µM); Minimum inhibitory concentration, Ab ATCC 19606 [2, 10]: 1 µg/mL (≈ 0.872 µM); Minimum inhibitory concentration, Ab FADDI-AB034 [2, 11]: 1 µg/mL (≈ 0.872 µM); Minimum inhibitory concentration, Ec FADDI-EC001 [3, 12]: 0.25 µg/mL (≈ 0.218 µM); Minimum inhibitory concentration, Ec FADDI-EC003 [3, 13]: 0.25 µg/mL (≈ 0.218 µM); Minimum inhibitory concentration, Ec FADDI-EC006 [3, 14]: 1 µg/mL (≈ 0.872 µM); MIC ([4]; K. pneumoniae FADDI-KP032): 0.25 µg/mL (≈ 0.218 µM) |
| CC(C)C[C@H]1NC(=O)[C@H](CCN)NC(=O)[C@@H](NC(=O)[C@H](CN)NC(=O)[C@@H](NC(=O)[C@H](CCN)NC(=O)c2cc(Cl)cc(Cl)c2)[C@@H](C)O)CCNC(=O)[C@H]([C@@H](C)O)NC(=O)[C@H](CCN)NC(=O)[C@H](CCN)NC(=O)[C@H]([C@@H](C)O)NC1=O [Compound 118] ({Benzoyl(3,5-Cl2)}-[Dab]T[Dap][Dab][Dab][dL]T[Dab][Dab]T; lactam 4-C) | −3.53 log10 CFU/mL |  |  |  |  |  |  |  |  |  |  |  |  | MIC ([1]; P. aeruginosa ATCC 27853): 0.5 µg/mL (≈ 0.425 µM); Minimum inhibitory concentration, Pa ATCC 27853 [1, 6]: 0.5 µg/mL (≈ 0.425 µM); Minimum inhibitory concentration, Pa FADDI-PA022 [1, 7]: 2 µg/mL (≈ 1.7 µM); Minimum inhibitory concentration, Pa FADDI-PA025 [1, 8]: 2 µg/mL (≈ 1.7 µM); MIC ([2]; A. baumannii ATCC 19606): 2 µg/mL (≈ 1.7 µM); Minimum inhibitory concentration, Ab A ATCC 17978 [2, 9]: >32 µg/mL; Minimum inhibitory concentration, Ab ATCC 19606 [2, 10]: 2 µg/mL (≈ 1.7 µM); Minimum inhibitory concentration, Ab FADDI-AB034 [2, 11]: 1 µg/mL (≈ 0.85 µM); Minimum inhibitory concentration, Ec FADDI-EC001 [3, 12]: 1 µg/mL (≈ 0.85 µM); Minimum inhibitory concentration, Ec FADDI-EC003 [3, 13]: 0.25 µg/mL (≈ 0.213 µM); Minimum inhibitory concentration, Ec FADDI-EC006 [3, 14]: 0.5 µg/mL (≈ 0.425 µM); MIC ([4]; K. pneumoniae FADDI-KP032): 0.25 µg/mL (≈ 0.213 µM) |
| CC[C@@H]1NC(=O)[C@@H](CC(C)C)NC(=O)[C@H](CCN)NC(=O)[C@@H](NC(=O)[C@H](CN)NC(=O)[C@@H](NC(=O)[C@H](CCN)NC(=O)c2ccc(C(F)(F)F)c(C)c2)[C@@H](C)O)CCNC(=O)[C@H]([C@@H](C)O)NC(=O)[C@H](CCN)NC(=O)[C@H](CCN)NC1=O [Compound 119] (X20-[Dab]T[Dap][Dab][Dab][dL][Abu][Dab][Dab]T; lactam 4-C) | −3.40 log10 CFU/mL | 0.5 µg/mL (≈ 0.426 µM) | 0.5 µg/mL (≈ 0.426 µM) | 0.5 µg/mL (≈ 0.426 µM) | 2 µg/mL (≈ 1.7 µM) | 1 µg/mL (≈ 0.852 µM) | 0.5 µg/mL (≈ 0.426 µM) | 1 µg/mL (≈ 0.852 µM) | 0.25 µg/mL (≈ 0.213 µM) | <0.125 µg/mL | <0.125 µg/mL | 0.25 µg/mL (≈ 0.213 µM) | <0.125 µg/mL |  |
| CC[C@@H]1NC(=O)[C@@H](CC(C)C)NC(=O)[C@H](CCN)NC(=O)[C@@H](NC(=O)[C@H](CN)NC(=O)[C@@H](NC(=O)[C@H](CCN)NC(=O)c2cc(C)cc(C(F)(F)F)c2)[C@@H](C)O)CCNC(=O)[C@H]([C@@H](C)O)NC(=O)[C@H](CCN)NC(=O)[C@H](CCN)NC1=O [Compound 120] (X17-[Dab]T[Dap][Dab][Dab][dL][Abu][Dab][Dab]T; lactam 4-C) | −3.20 log10 CFU/mL | 1 µg/mL (≈ 0.852 µM) | 1 µg/mL (≈ 0.852 µM) | 1 µg/mL (≈ 0.852 µM) | 2 µg/mL (≈ 1.7 µM) | 1 µg/mL (≈ 0.852 µM) | 0.5 µg/mL (≈ 0.426 µM) | 1 µg/mL (≈ 0.852 µM) | 0.5 µg/mL (≈ 0.426 µM) | 0.25 µg/mL (≈ 0.213 µM) | 0.25 µg/mL (≈ 0.213 µM) | 0.25 µg/mL (≈ 0.213 µM) | 0.5 µg/mL (≈ 0.426 µM) |  |
| CCCC[C@H]1NC(=O)[C@H](CCN)NC(=O)[C@@H](NC(=O)[C@H](CN)NC(=O)[C@@H](NC(=O)[C@H](CCN)NC(=O)c2cccc(C(F)(F)F)c2)[C@@H](C)O)CCNC(=O)[C@H]([C@@H](C)O)NC(=O)[C@H](CCN)NC(=O)[C@H](CCN)NC(=O)[C@H](CC)NC1=O [Compound 121] ({Benzoyl(3-CF3)}-[Dab]T[Dap][Dab][Dab][dNle][Abu][Dab][Dab]T; lactam 4-C) | −2.81 log10 CFU/mL | 0.5 µg/mL (≈ 0.431 µM) | 0.5 µg/mL (≈ 0.431 µM) | 1 µg/mL (≈ 0.863 µM) | 2 µg/mL (≈ 1.73 µM) | 0.5 µg/mL (≈ 0.431 µM) | 0.5 µg/mL (≈ 0.431 µM) | 0.5 µg/mL (≈ 0.431 µM) | 0.5 µg/mL (≈ 0.431 µM) | 0.25 µg/mL (≈ 0.216 µM) | 0.25 µg/mL (≈ 0.216 µM) | 0.25 µg/mL (≈ 0.216 µM) | 0.25 µg/mL (≈ 0.216 µM) |  |
| C[C@@H](O)[C@@H]1NC(=O)[C@H](CCN)NC(=O)[C@H](CCN)NC(=O)[C@H]([C@@H](C)O)NC(=O)[C@@H](Cc2ccccc2)NC(=O)[C@H](CCN)NC(=O)[C@@H](NC(=O)[C@H](CN)NC(=O)[C@@H](NC(=O)[C@H](CCN)NC(=O)c2cccc(C(F)(F)F)c2)[C@@H](C)O)CCNC1=O [Compound 124] ({Benzoyl(3-CF3)}-[Dab]T[Dap][Dab][Dab][dF]T[Dab][Dab]T; lactam 4-C) | −3.36 log10 CFU/mL | 0.25 µg/mL (≈ 0.207 µM) | 0.25 µg/mL (≈ 0.207 µM) | 0.5 µg/mL (≈ 0.413 µM) | 2 µg/mL (≈ 1.65 µM) | 1 µg/mL (≈ 0.827 µM) | 1 µg/mL (≈ 0.827 µM) | 1 µg/mL (≈ 0.827 µM) | 0.25 µg/mL (≈ 0.207 µM) | 0.5 µg/mL (≈ 0.413 µM) | <0.125 µg/mL | 0.5 µg/mL (≈ 0.413 µM) | 0.25 µg/mL (≈ 0.207 µM) |  |
| CCCC[C@H]1NC(=O)[C@H](CCN)NC(=O)[C@@H](NC(=O)[C@H](CN)NC(=O)[C@@H](NC(=O)[C@H](CCN)NC(=O)c2cccc(C(F)(F)F)c2)[C@@H](C)O)CCNC(=O)[C@H]([C@@H](C)O)NC(=O)[C@H](CCN)NC(=O)[C@H](CCN)NC(=O)[C@H](C)NC1=O [Compound 125] ({Benzoyl(3-CF3)}-[Dab]T[Dap][Dab][Dab][dNle]A[Dab][Dab]T; lactam 4-C) | −3.66 log10 CFU/mL | 0.25 µg/mL (≈ 0.218 µM) | 0.25 µg/mL (≈ 0.218 µM) | 0.5 µg/mL (≈ 0.437 µM) | 2 µg/mL (≈ 1.75 µM) | 1 µg/mL (≈ 0.873 µM) | 1 µg/mL (≈ 0.873 µM) | 1 µg/mL (≈ 0.873 µM) | 0.5 µg/mL (≈ 0.437 µM) | 0.5 µg/mL (≈ 0.437 µM) | 0.5 µg/mL (≈ 0.437 µM) | 1 µg/mL (≈ 0.873 µM) | 0.25 µg/mL (≈ 0.218 µM) |  |
